System: PBMC
Test: Time-dependent cytokine secretion by PBMC (Table 3)
Format: cell-based, human
Experimental: Detailed time dependent and multiple controls were used the secretion of several cytokines by PBMC (IL-2, IL-5, IL-8, GM-CSF, IL-4, IL-10, TNF-α, IFN-γβ, IL-1 and IL-6) were measured. […] By 4 hours, sPIF-1 blocked TNF alpha with recovery by 24 hours. Also INFgamma secretion initiated only after 48 hours. […] Effects on cytokines was already noted at 0.7 nM. Similar effects were found also with other mitogens LPS and PHA when PIF-1 was tested.

[1] = 24 h post induction, substance alone
[2] = 24 h post induction, with MabCD3 coated wells
[3] = 48 h post induction, substance alone
[4] = 48 h post induction, with MabCD3 coated wells
[5] = 96 h post induction, substance alone
[6] = 96 h post induction, with MabCD3 coated wells

**Q.** For MVRIKPGSANKPSDD [sPIF-1(15)], which GM-CSF [1] is on record?
**A.** 0 pg/mL

**Q.** And the IFN-y [1]?
**A.** 0 pg/mL

**Q.** What about the IL-1β [1] of the same sequence?
**A.** 0 pg/mL

**Q.** And the IL-2 [1]?
**A.** 0 pg/mL

**Q.** What about the IL-4 [1] of the same sequence?
**A.** 0 pg/mL

**Q.** And the IL-5 [1]?
**A.** 0 pg/mL

**Q.** And the IL-6 [1]?
**A.** 36.3 pg/mL

**Q.** What about the IL-8 [1] of the same sequence?
**A.** >6330 pg/mL

**Q.** And the IL-10 [1]?
**A.** 0 pg/mL

**Q.** And the TNF-α [1]?
**A.** 38.0 pg/mL

**Q.** And the GM-CSF [2]?
**A.** 58.9 pg/mL

**Q.** What about the IFN-y [2] of the same sequence?
**A.** 0 pg/mL

**Q.** And the IL-1β [2]?
**A.** 2914.1 pg/mL

**Q.** And the IL-2 [2]?
**A.** 9045.7 pg/mL

**Q.** And the IL-4 [2]?
**A.** 58.9 pg/mL

**Q.** What about the IL-5 [2] of the same sequence?
**A.** 397.5 pg/mL

**Q.** And the IL-6 [2]?
**A.** >5200 pg/mL

**Q.** What about the IL-8 [2] of the same sequence?
**A.** >6330 pg/mL

**Q.** What about the IL-10 [2] of the same sequence?
**A.** 1710.1 pg/mL

**Q.** And the TNF-α [2]?
**A.** >11390 pg/mL

**Q.** And the GM-CSF [3]?
**A.** 0 pg/mL

**Q.** And the IFN-y [3]?
**A.** 0 pg/mL

**Q.** And the IL-1β [3]?
**A.** 0 pg/mL

**Q.** And the IL-2 [3]?
**A.** 0 pg/mL

**Q.** What about the IL-4 [3] of the same sequence?
**A.** 0 pg/mL

**Q.** And the IL-5 [3]?
**A.** 0 pg/mL

**Q.** What about the IL-6 [3] of the same sequence?
**A.** 0 pg/mL

**Q.** And the IL-8 [3]?
**A.** >6330 pg/mL

**Q.** What about the IL-10 [3] of the same sequence?
**A.** 0 pg/mL

**Q.** What about the TNF-α [3] of the same sequence?
**A.** 0 pg/mL

**Q.** What about the GM-CSF [4] of the same sequence?
**A.** 0 pg/mL

**Q.** And the IFN-y [4]?
**A.** >4740 pg/mL

**Q.** And the IL-1β [4]?
**A.** 3295.4 pg/mL

**Q.** What about the IL-2 [4] of the same sequence?
**A.** 6015.3 pg/mL

**Q.** What about the IL-4 [4] of the same sequence?
**A.** 0 pg/mL

**Q.** And the IL-5 [4]?
**A.** 943.6 pg/mL

**Q.** What about the IL-6 [4] of the same sequence?
**A.** >5200 pg/mL

**Q.** And the IL-8 [4]?
**A.** >6330 pg/mL

**Q.** What about the IL-10 [4] of the same sequence?
**A.** 664.9 pg/mL

**Q.** What about the TNF-α [4] of the same sequence?
**A.** >11390 pg/mL

**Q.** What about the GM-CSF [5] of the same sequence?
**A.** 0 pg/mL

**Q.** And the IFN-y [5]?
**A.** 0 pg/mL

**Q.** What about the IL-1β [5] of the same sequence?
**A.** 0 pg/mL

**Q.** What about the IL-2 [5] of the same sequence?
**A.** 0 pg/mL

**Q.** What about the IL-4 [5] of the same sequence?
**A.** 0 pg/mL

**Q.** What about the IL-5 [5] of the same sequence?
**A.** 0 pg/mL

**Q.** What about the IL-6 [5] of the same sequence?
**A.** 0 pg/mL

**Q.** What about the IL-8 [5] of the same sequence?
**A.** 6679.0 pg/mL

**Q.** What about the IL-10 [5] of the same sequence?
**A.** 0 pg/mL

**Q.** What about the TNF-α [5] of the same sequence?
**A.** 0 pg/mL

**Q.** What about the GM-CSF [6] of the same sequence?
**A.** 0 pg/mL

**Q.** And the IFN-y [6]?
**A.** 0 pg/mL

**Q.** And the IL-1β [6]?
**A.** 0 pg/mL

**Q.** What about the IL-2 [6] of the same sequence?
**A.** 0 pg/mL

**Q.** And the IL-4 [6]?
**A.** 0 pg/mL

**Q.** What about the IL-5 [6] of the same sequence?
**A.** 0 pg/mL

**Q.** What about the IL-6 [6] of the same sequence?
**A.** 0 pg/mL

**Q.** What about the IL-8 [6] of the same sequence?
**A.** 0 pg/mL

**Q.** And the IL-10 [6]?
**A.** 0 pg/mL

**Q.** And the TNF-α [6]?
**A.** 0 pg/mL

**Q.** What about the “Th2 cytokine (IL10) secretion” value (CD3MAb as mitogen, after 24 hours) of the same sequence?
**A.** Major increase

**Q.** And the TNF alpha secretion (CD3MAb as mitogen, by 4 hours, recovery by 24 hours)?
**A.** blocked

From patent publication US7723289B2, “PIF tetrapeptides” (BioIncept, LLC, priority 2003, dated 2010)
